Results taken from US20080031982A1 (Metaproteomics, LLC, priority 2006, published 2008).
Marks after values point to notes of the source that are not given here.

What was measured:
[1] = test system: LPS-treated 3T3-L1 adipocytes; assay: Adiponectin secretion in LPS/3T3-L1 adipocytes; assay type: cell-based, murine; settings: for Maximum adiponectin stimulation / concentration of maximum adiponectin stimulation: 100 ng/ml LPS
3T3-L1 adipocytes = assay: Lipogenesis in 3T3-L1 adipocytes (Oil Red O / BODIPY); assay type: cell-based, murine; settings: for adipogenic / lipogenic response: relative to solvent and positive controls
Description: Prior to experiments, cells were cultured in DMEM containing 10% FBS-HI added 50 units penicillin/ml and 50 μg streptomycin/ml, and maintained in log phase prior to experimental setup. Cells were grown in a 5% CO2 humidified incubator at 37° C. Components of the pre-confluent medium included (1) 10% FBS/DMEM containing 4.5 g glucose/L; (2) 50 U/ml penicillin; and (3) 50 μg/ml streptomycin. Growth medium was made by adding 50 ml of heat inactivated FBS and 5 ml of penicillin/streptomycin to 500 ml DMEM. This medium was stored at 4° C. Before use, the medium was warmed to 37° C. in a water bath.
3T3-T1 cells were seeded at an initial density of 6×10^4 cells/cm^2 in 24-well plates. For two days, the cells were allowed grow to reach confluence. Following confluence, the cells were forced to differentiate into adipocytes by the addition of differentiation medium; this medium consisted of (1) 10% FBS/DMEM (high glucose); (2) 0.5 mM methylisobutylxanthine; (3) 0.5 μM dexamethasone and (4) 10 μg/ml insulin (MDI medium). After three days, the medium was changed to post-differentiation medium consisting of 10 μg/ml insulin in 10% FBS/DMEM.
Whenever fresh media were added, fresh test material was also added.
Oil Red 0 Staining—Triglyceride content of D6/D7-differentiated 3T3-L1 cells was estimated with Oil Red 0 according to the method of Kasturi and Joshi [Kasturi, R. and Joshi, V. C. […] Monolayer cells were washed with PBS (phosphate buffered saline, Mediatech) and fixed with 10% formaldehyde for ten minutes. Fixed cells were stained with an Oil Red 0 working solution of three parts 0.6% Oil Red O/isopropanol stock solution and two parts water for one hour and the excess stain was washed once with water. The resulting stained oil droplets were extracted from the cells with isopropanol and quantified by spectrophotometric analysis at 540 nm (MEL312e BIO-KINETICS READER, Bio-Tek Instruments, Winooski, Vt.).
Briefly, media were removed and cells were washed once with non-sterile PBS. A stock 1000× BODIPY/DMSO solution was made by dissolving 1 mg BODIPY in 1 ml DMSO (1,000 μg BODIPY/ml). […] One-hundred μl of this working solution (1 μg BODIPY) was added to each well of a 96-well microtiter plate. After 15 min on an orbital shaker (DS-500, VWR Scientific Products, South Plainfield, N.J.) at ambient temperature, the cells were washed with 100 μl PBS followed by the addition of 100 μl PBS for reading for spectrofluorometric determination of BODIPY incorporation into the cells.
Nonpolar lipid incorporation was represented relative to the nonpolar lipid accumulation of fully differentiated cells in the solvent controls.

[2] = test system: insulin-resistant 3T3-L1 adipocytes; assay: Adiponectin secretion from insulin-resistant 3T3-L1 adipocytes; assay type: cell-based, murine; settings: 50.0 μg/ml, ratio of the indices (Table 21)
Description: 3T3-L1 cells were seeded at an initial density of 1×10^4 cells/cm^2 in 96-well plates. For two days, the cells were allowed grow to reach confluence. Following confluence, the cells were forced to differentiate into adipocytes by the addition of differentiation medium; this medium consisted of (1) 10% FBS/DMEM (high glucose); (2) 0.5 mM methylisobutylxanthine; (3) 0.5 μM dexamethasone and (4) 10 μg/ml insulin (MDI medium). From Day 3 through Day 5, the medium was changed to post-differentiation medium consisting of 10 μg/ml insulin in 10% FBS/DMEM.
Briefly, on Day 6, cells were maintained in serum-free media containing 0.5% bovine serum albumin (BSA) for three hours and then treated with 1 μg insulin/ml plus solvent or insulin plus test material. […] Twenty-four hours later, the supernatant medium was sampled for adiponectin determination.
Adiponectin Assay—The adiponectin secreted into the medium was quantified using the Mouse Adiponectin Quantikine® Immunoassay kit with no modifications (R&D Systems, Minneapolis, Minn.).
Substituting {relative adiponectin secretion/[concentration]} for the independent variable v/[S] and {relative adiponectin secretion} for the dependant variable {v}, produced a relationship of the form y=mx+b. […]

[3] = test system: LPS-stimulated 3T3-L1 adipocytes; assay: IL-6 secretion in LPS/3T3-L1 adipocytes; assay type: cell-based, murine; settings: at the concentration of maximum inhibition, 100 ng LPS/ml; for IL-6 Index: indexed to LPS control
[4] = test system: TNFα-treated 3T3-L1 adipocytes; assay: Adiponectin secretion from TNFα-treated 3T3-L1 adipocytes; assay type: cell-based, murine; settings: for maximum increase of adiponectin secretion from TNFα control: 10 ng/ml TNFα
Description: For two days, the cells were allowed grow to reach confluence. […] (3) 0.5 μM dexamethasone and (4) 10 μg/ml insulin (MDI medium). […] Adiponectin Assay—The adiponectin secreted into the medium was quantified using the Mouse Adiponectin Quantikine® Immunoassay kit with no modifications (R&D Systems, Minneapolis, Minn.). […] Statistical Calculations and Interpretation—All assays were preformed in duplicate. […] Differences among the doses and test agents were determined using the Student's t-test without correction for multiple comparisons; the nominal five percent probability of a type I error was selected.

[5] = Non-fasting serum glucose in db/db diabetic mice; assay type: in vivo
Description: The Model—Male, C57BLKS/J m^+/m^+ Lepr^db (db/db) mice were used to assess the potential of the test materials to reduce fasting serum glucose or insulin concentrations. This strain of mice is resistant to leptin by virtue of the absence of a functioning leptin receptor.
Testing Procedure—Test substances were administered daily by gavage in 0.2% Tween-80. Serum was collected from the retroorbital sinus before the initial dose and ninety minutes after the third and final dose. Non-fasting serum glucose was determined enzymatically by the mutarotase/glucose oxidase method and serum insulin was determined by a mouse specific ELISA.
Testing Procedure—Test substances were administered daily by gavage in 0.2% Tween-80. Serum was collected from the retroorbital sinus before the initial dose and ninety minutes after the fifth and final dose. Non-fasting serum glucose was determined enzymatically by the mutarotase/glucose oxidase method and serum insulin was determined by a mouse specific ELISA.

[6] = Serum cytokine (IL-6, TNF-α) analysis, collagen induced arthritis; assay type: in vivo, DBA/J mice; settings: 10 mg/kg
Description: Cytokine analysis—Serum was collected from the mice at the termination of the experiment for cytokine analysis. The volume of sample being low (˜0.2-0.3 ml/mouse), samples from the ten mice were randomly allocated into two pools of five animals each. This was done so to permit repeat analyses; each analysis was performed a minimum of two times. TNF-α and IL-6 were analyzed using mouse specific reagents (R&D Systems, Minneapolis, Minn.) according to the manufacturer's instructions.

PGE2 biosynthesis = PGE2 biosynthesis in A549 cells stimulated by mite dust allergen; assay type: cell-based, human; settings: 10 μg/ml
Description: Mite dust allergen isolation—Dermatophagoides farinae is the American house dust mite. D. farinae were raised on a 1:1 ratio of Purina Laboratory Chow (Ralston Purina, Co, St. Louis, Mo.) and Fleischmann's granulated dry yeast (Standard Brands, Inc. New York, N.Y.) at room temperature and 75% humidity. Live mites were aspirated from the culture container as they migrated from the medium, killed by freezing, desiccated and stored at 0% humidity. The allergenic component of the mite dust was extracted with water at ambient temperature. Five-hundred mg of mite powder were added to 5 ml of water (1:10 w/v) in a 15 ml conical centrifuge tube (VWR, Rochester, N.Y.), shaken for one minute and allowed to stand overnight at ambient temperature. The next day, the aqueous phase was filtered using a 0.2 μm disposable syringe filter (Nalgene, Rochester, N.Y.). The filtrate was termed mite dust allergen and used to test for induction of PGE2 biosynthesis in A549 pulmonary epithelial cells.
Cell culture and treatment—The human airway epithelial cell line, A549 (American Type Culture Collection, Bethesda, Md.) was cultured and treated as previously described in Example 6. Mite allergen was added to the culture medium to achieve a final concentration of 1000 ng/ml. Eighteen hours later, the media were sampled for PGE2 determination.

[7] = at the concentration of maximum stimulation

With CC(=O)Oc1ccccc1C(=O)O [Aspirin, aspirin] the Maximum adiponectin stimulation [1] was “failed to induce adiponectin secretion”.

In the case of CC(C)CCC1=C(O)C(C(=O)C(C)C)=C(O)C(CCC(C)C)(CCC(C)C)C1=O [Hexahydro colupulone, hexahydrocolupulone], the “adipogenic / lipogenic response” value (3T3-L1 adipocytes) is reported as “failed to elicit a lipogenic response greater than the solvent controls”.

In the case of CC(C)CCC1=C(O)C(C(=O)C(C)C)=C(O)C(CCC(C)C)(CCC(C)C)C1=O [Hexahydrocolupulone (HHCL)], the Adiponectin/IL-6 [2] is reported as 0.60#.

For COc1ccc2c(c1)c(CC(=O)O)c(C)n2C(=O)c1ccc(Cl)cc1 [Indomethacin, indomethacin], the “adipogenic / lipogenic response” value (3T3-L1 adipocytes) was “induced lipogenesis”, the “% Inhibition of IL-6 secretion (maximum)” value [3] was 53* % and the Maximum adiponectin stimulation [1] was 9%. For the same molecule, the “% Stimulation of adiponectin secretion (maximum)” value (from here on “% Stimulation”) [1, 7] was 9%.

For CCc1ccc(CCOc2ccc(CC3SC(=O)NC3=O)cc2)nc1 (centres unmarked) [Pioglitazone, pioglitazone], the “maximum increase of adiponectin secretion from TNFα control” value [4] was 80%, the “Adiponectin Index Observed” value ([4]; 1.0 μg/ml (Table 26)) was 1.80 and the “IL-6 Index” value [3] was 0.37*. For the same molecule, the “concentration of maximum adiponectin stimulation” value (“concentration” below) [1] was 1.25 µg/mL and the “% Stimulation” value [1, 7] was 12%.

For Cc1c(C)c2c(c(C)c1O)CCC(C)(COc1ccc(CC3SC(=O)NC3=O)cc1)O2 (centres unmarked) [Troglitazone, troglitazone], the “maximum increase of adiponectin secretion from TNFα control” value [4] was 51%, the “concentration” value [1] was 0.625 µg/mL and the “% Stimulation” value [1, 7] was 15%.

With CC(C)Cc1ccc(C(C)C(=O)O)cc1 (centres unmarked) [ibuprofen] the “concentration” value [1] was 0.625 µg/mL and the “% Stimulation” value [1, 7] was 22%.

In the case of CN(C)C(=N)N=C(N)N [metformin, reference compound], the “lipogenic index (triglyceride content relative to solvent control)” value (3T3-L1 adipocytes; Oil Red O, 50 μg/ml) is reported as 0.79 and the “serum glucose relative to controls” value ([5]; three consecutive days) is reported as “decreased”.

With C[C@]12C=CC(=O)C=C1CC[C@@H]1[C@@H]2[C@@H](O)C[C@@]2(C)[C@H]1CC[C@]2(O)C(=O)CO [prednisolone] the “reduction of serum IL-6 levels” value [6] was “reached a statistical significance”.

In the case of CN(CCOc1ccc(CC2SC(=O)NC2=O)cc1)c1ccccn1 (centres unmarked) [rosiglitazone], the “Glucose [% Pretreatment]” value ([5]; 1.0 mg/kg-day by gavage, three days, db/db mice, non-fasting serum) is reported as 83.0# % Pretreatment.

In the case of O=C(O)c1ccccc1O [salicylic acid], the “IL-6 Index” value [3] is reported as 0.52*, the Maximum adiponectin stimulation [1] is reported as “failed to induce adiponectin secretion” and the “Adiponectin Index” value ([1]; at the concentration of maximum stimulation, indexed to LPS control) is reported as 0.96.

With Beta acids the “Percent PGE2 Inhibition” value (PGE2 biosynthesis) was 83% and the “adipogenic / lipogenic response” value (3T3-L1 adipocytes) was “comparable to indomethacin and troglitazone”.
